Like-named read-outs stand apart in the source and are kept apart here.
How the values were obtained:
[1] = cited from earlier work
[2] = assay type: physicochemical
Description: Examples illustrating the dissolution and aqueous reconstitution of terephthalic acid from ionic liquids follow the same general experimental protocol. However, it should be noted that the ionic liquids chosen are by far non-limiting examples of terephthalic acid dissolution in ionic liquids. To a vial containing 100 mg of an ionic liquid is added 10 mg of terephthalic acid and the mixture is heated to 75° C. to reduce the viscosity of the resulting liquid. The solution is stirred on a hot plate in an oil bath for 24 hours, whereupon the solutions are visually checked for dissolution. Aqueous reconstitution of the terephthalic acid is achieved by the addition of 500 mL deionized water (polished to 18.1-18.3 MΩ cm). Crystalline terephthalic acid separates from the ionic liquid as a flock, washed with copious amounts of deionized water and vacuum filtered, then dried in ambient conditions and ground with a spatula to give the desired crystalline terephthalic acid.

In the case of `O=Cc1ccc(C(=O)O)cc1` [4-Carboxybenzaldehyde, 4-carboxybenzaldehyde], the solubility in water ([1]; no temperature given) is listed as “soluble”.

For `O=C(O)c1ccc(C(=O)O)cc1` [terephthalic acid], the “solubility in various ionic liquids” value [2] is given as “soluble”, the “solubility of terephthalic acid in water” value ([1]; temperature of about 300° C.) is given as “about 40%” and the solubility in water ([1]; temperatures below about 200° C.) is given as “insoluble”.

Source: patent US8309760B2, “Process for purification of aryl carboxylic acids” (University of Alabama, priority 2007, dated 2012)
